The values that follow come from patent US20050148991A1, “Device for using patient blood as diluent in administering pharmaceuticals” (priority 2002, published 2005).

The nature of the data set: early study in humans receiving RSR13 via injection in a peripheral vein. In kind it is in vivo. An excerpt: Therefore, the use of RSR13 and its physiologically acceptable salts in the present methods is contemplated. The preparation and uses for 2-[4-[2-[(3,5-dimethylphenyl)amino]-2-oxoethyl]phenoxy]-2-methyl-propionic acid and its physiologically acceptable salts has been described previously in U.S. Pat. Nos. 5,049,695; 5,122,539; 5,290,803; 5,432,191; 5,525,630; 5,648,375; 5,661,182; 5,677,330; 5,705,521; 5,872,888; and 5,927,283, and pending U.S. patent application Ser. No. 10/082,130, filed Feb. 25, 2002.

`Cc1cc(C)cc(NC(=O)Cc2ccc(OC(C)(C)C(=O)O)cc2)c1` [RSR13, 2-[4-[2-[(3,5-dimethylphenyl)amino]-2-oxoethyl]phenoxy]-2-methyl-propionic acid]: the pain on injection entry was “some recipients complained of pain near the site of injection and downstream”.
